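Protocol summary: plate cells (96-well), add compound at 5 concentrations, incubate 48 h, interpolate endpoints linearly. GI50 marks 50% less growth. TGI: total growth inhibition.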
Legend:
Assay in all cases: NCI anticancer screen, dose series, 48 h
ACHN renal = tested on: ACHN renal
IGROV1 ovarian = tested on: IGROV1 ovarian
OVCAR-4 ovarian = tested on: OVCAR-4 ovarian
OVCAR-5 ovarian = tested on: OVCAR-5 ovarian
HCT-116 colon = tested on: HCT-116 colon
CAKI-1 renal = tested on: CAKI-1 renal
PC-3 prostate = tested on: PC-3 prostate
HCC-2998 colon = tested on: HCC-2998 colon
786-0 renal = tested on: 786-0 renal
SN12C renal = tested on: SN12C renal
HCT-15 colon = tested on: HCT-15 colon
HS 578T breast = tested on: HS 578T breast
NCI-H226 lung = tested on: NCI-H226 lung
OVCAR-8 ovarian = tested on: OVCAR-8 ovarian
MALME-3M melanoma = tested on: MALME-3M melanoma
EKVX NSCLC = tested on: EKVX NSCLC
SK-MEL-2 melanoma = tested on: SK-MEL-2 melanoma
HL-60(TB) leukemia = tested on: HL-60(TB) leukemia
NCI/ADR-RES ovarian = tested on: NCI/ADR-RES ovarian
OVCAR-3 ovarian = tested on: OVCAR-3 ovarian
NCI-H522 lung = tested on: NCI-H522 lung
U251 CNS = tested on: U251 CNS
UACC-62 melanoma = tested on: UACC-62 melanoma
SF-539 CNS = tested on: SF-539 CNS
MCF7 breast = tested on: MCF7 breast
M14 melanoma = tested on: M14 melanoma
RXF 393 renal = tested on: RXF 393 renal
UACC-257 melanoma = tested on: UACC-257 melanoma
KM12 colon = tested on: KM12 colon
NCI-H460 lung = tested on: NCI-H460 lung
NCI-H23 lung = tested on: NCI-H23 lung
COLO 205 colon = tested on: COLO 205 colon
MDA-MB-231 breast = tested on: MDA-MB-231 breast
A549 NSCLC = tested on: A549 NSCLC
TK-10 renal = tested on: TK-10 renal
SNB-75 CNS = tested on: SNB-75 CNS
SK-MEL-28 melanoma = tested on: SK-MEL-28 melanoma
HOP-92 NSCLC = tested on: HOP-92 NSCLC
SK-MEL-5 melanoma = tested on: SK-MEL-5 melanoma
SF-268 CNS = tested on: SF-268 CNS
A498 renal = tested on: A498 renal
SW-620 colon = tested on: SW-620 colon
T-47D breast = tested on: T-47D breast
SF-295 CNS = tested on: SF-295 CNS
RPMI-8226 leukemia = tested on: RPMI-8226 leukemia
K-562 leukemia = tested on: K-562 leukemia
SK-OV-3 ovarian = tested on: SK-OV-3 ovarian
MDA-MB-435 = tested on: MDA-MB-435
HT29 colon = tested on: HT29 colon
SR leukemia = tested on: SR leukemia
SNB-19 CNS = tested on: SNB-19 CNS
DU-145 prostate = tested on: DU-145 prostate
MOLT-4 leukemia = tested on: MOLT-4 leukemia
HOP-62 NSCLC = tested on: HOP-62 NSCLC
UO-31 renal = tested on: UO-31 renal
BT-549 breast = tested on: BT-549 breast
LOX IMVI melanoma = tested on: LOX IMVI melanoma
CCRF-CEM leukemia = tested on: CCRF-CEM leukemia

COc1cccc(/C=N/NC(=O)CSCC(=O)N/N=C/c2cccc(OC)c2OC)c1OC
TGI (ACHN renal): > 100 µM
TGI (IGROV1 ovarian): > 100 µM
TGI (OVCAR-4 ovarian): > 100 µM
TGI (OVCAR-5 ovarian): > 100 µM
TGI (HCT-116 colon): > 100 µM
TGI (CAKI-1 renal): > 100 µM
TGI (PC-3 prostate): > 100 µM
TGI (HCC-2998 colon): > 100 µM
TGI (786-0 renal): > 100 µM
TGI (SN12C renal): > 100 µM
TGI (HCT-15 colon): > 100 µM
TGI (HS 578T breast): > 100 µM
TGI (NCI-H226 lung): > 100 µM
TGI (OVCAR-8 ovarian): > 100 µM
TGI (MALME-3M melanoma): > 100 µM
TGI (EKVX NSCLC): > 100 µM
TGI (SK-MEL-2 melanoma): > 100 µM
TGI (HL-60(TB) leukemia): > 100 µM
TGI (NCI/ADR-RES ovarian): > 100 µM
TGI (OVCAR-3 ovarian): > 100 µM
TGI (NCI-H522 lung): > 100 µM
TGI (U251 CNS): > 100 µM
TGI (UACC-62 melanoma): > 100 µM
TGI (SF-539 CNS): > 100 µM
TGI (MCF7 breast): > 100 µM
TGI (M14 melanoma): > 100 µM
TGI (RXF 393 renal): > 100 µM
TGI (UACC-257 melanoma): > 100 µM
TGI (KM12 colon): > 100 µM
TGI (NCI-H460 lung): > 100 µM
TGI (NCI-H23 lung): > 100 µM
TGI (COLO 205 colon): > 100 µM
TGI (MDA-MB-231 breast): > 100 µM
TGI (A549 NSCLC): > 100 µM
TGI (TK-10 renal): > 100 µM
TGI (SNB-75 CNS): > 100 µM
TGI (SK-MEL-28 melanoma): > 100 µM
TGI (HOP-92 NSCLC): > 100 µM
TGI (SK-MEL-5 melanoma): > 100 µM
TGI (SF-268 CNS): > 100 µM
TGI (A498 renal): > 100 µM
TGI (SW-620 colon): > 100 µM
TGI (T-47D breast): > 100 µM
TGI (SF-295 CNS): > 100 µM
TGI (RPMI-8226 leukemia): > 100 µM
TGI (K-562 leukemia): > 100 µM
TGI (SK-OV-3 ovarian): > 100 µM
TGI (MDA-MB-435): > 100 µM
TGI (HT29 colon): > 100 µM
TGI (SR leukemia): > 100 µM
TGI (SNB-19 CNS): > 100 µM
TGI (DU-145 prostate): > 100 µM
TGI (MOLT-4 leukemia): > 100 µM
TGI (HOP-62 NSCLC): > 100 µM
TGI (UO-31 renal): > 100 µM

O=S(=O)(CCN1CCOCC1)Nc1cc(-c2ccc3ncnc(Nc4ccc(F)c(Cl)c4)c3c2)cnc1Cl
GI50 (ACHN renal): 0.735 µM
TGI (ACHN renal): > 100 µM
GI50 (IGROV1 ovarian): 0.137 µM
TGI (IGROV1 ovarian): 0.515 µM
GI50 (OVCAR-4 ovarian): 1.66 µM
TGI (OVCAR-4 ovarian): 22.5 µM
GI50 (OVCAR-5 ovarian): 0.492 µM
TGI (OVCAR-5 ovarian): > 100 µM
GI50 (BT-549 breast): 0.254 µM
TGI (BT-549 breast): 2.59 µM
GI50 (HCT-116 colon): 1.38 µM
TGI (HCT-116 colon): 19.2 µM
GI50 (PC-3 prostate): 0.36 µM
TGI (PC-3 prostate): 15.1 µM
GI50 (HCC-2998 colon): 1.05 µM
TGI (HCC-2998 colon): 7.73 µM
GI50 (786-0 renal): 0.41 µM
TGI (786-0 renal): > 100 µM
GI50 (SN12C renal): 0.391 µM
TGI (SN12C renal): > 100 µM
GI50 (HCT-15 colon): 1.23 µM
TGI (HCT-15 colon): 28.9 µM
GI50 (NCI-H226 lung): 0.584 µM
TGI (NCI-H226 lung): 26.4 µM
GI50 (OVCAR-8 ovarian): 1.67 µM
TGI (OVCAR-8 ovarian): 31.2 µM
GI50 (MALME-3M melanoma): 0.115 µM
TGI (MALME-3M melanoma): 0.93 µM
GI50 (EKVX NSCLC): 0.282 µM
TGI (EKVX NSCLC): 3.64 µM
GI50 (HL-60(TB) leukemia): 1.15 µM
TGI (HL-60(TB) leukemia): 12.4 µM
GI50 (NCI/ADR-RES ovarian): 5.63 µM
TGI (NCI/ADR-RES ovarian): > 100 µM
GI50 (LOX IMVI melanoma): 0.414 µM
TGI (LOX IMVI melanoma): 3.15 µM
GI50 (OVCAR-3 ovarian): 0.391 µM
TGI (OVCAR-3 ovarian): 3.91 µM
GI50 (U251 CNS): 0.909 µM
TGI (U251 CNS): 10.5 µM
GI50 (UACC-62 melanoma): 0.153 µM
TGI (UACC-62 melanoma): 1.09 µM
GI50 (SF-539 CNS): 0.418 µM
TGI (SF-539 CNS): 2.69 µM
GI50 (MCF7 breast): 0.335 µM
TGI (MCF7 breast): 22.9 µM
GI50 (M14 melanoma): 0.754 µM
TGI (M14 melanoma): 9.42 µM
GI50 (RXF 393 renal): 0.239 µM
TGI (RXF 393 renal): 1.35 µM
GI50 (UACC-257 melanoma): 0.498 µM
TGI (UACC-257 melanoma): 8.12 µM
GI50 (KM12 colon): 2.64 µM
TGI (KM12 colon): 24 µM
GI50 (NCI-H460 lung): 1.56 µM
TGI (NCI-H460 lung): 19.6 µM
GI50 (NCI-H23 lung): 1.02 µM
TGI (NCI-H23 lung): > 100 µM
GI50 (MDA-MB-231 breast): 1.09 µM
TGI (MDA-MB-231 breast): 4.82 µM
GI50 (A549 NSCLC): 1.62 µM
TGI (A549 NSCLC): 6.29 µM
GI50 (SK-MEL-28 melanoma): 0.297 µM
TGI (SK-MEL-28 melanoma): 8.62 µM
GI50 (CCRF-CEM leukemia): 0.455 µM
TGI (CCRF-CEM leukemia): > 100 µM
GI50 (SK-MEL-5 melanoma): 0.313 µM
TGI (SK-MEL-5 melanoma): 1.58 µM
GI50 (SF-268 CNS): 0.407 µM
TGI (SF-268 CNS): 27.4 µM
GI50 (SW-620 colon): 1.3 µM
TGI (SW-620 colon): 15.8 µM
GI50 (T-47D breast): 0.07 µM
TGI (T-47D breast): 0.975 µM
GI50 (SF-295 CNS): 0.624 µM
TGI (SF-295 CNS): 4.29 µM
GI50 (K-562 leukemia): 3.27 µM
TGI (K-562 leukemia): > 100 µM
GI50 (SK-OV-3 ovarian): 0.286 µM
TGI (SK-OV-3 ovarian): 1.94 µM
GI50 (MDA-MB-435): 0.712 µM
TGI (MDA-MB-435): 10.3 µM
GI50 (HT29 colon): 0.674 µM
TGI (HT29 colon): 17.7 µM
GI50 (SR leukemia): 0.799 µM
TGI (SR leukemia): 6.96 µM
GI50 (SNB-19 CNS): 0.453 µM
TGI (SNB-19 CNS): 4.85 µM
GI50 (DU-145 prostate): 0.869 µM
TGI (DU-145 prostate): 25.6 µM
GI50 (HOP-62 NSCLC): 0.578 µM
TGI (HOP-62 NSCLC): 14.2 µM
GI50 (UO-31 renal): 0.267 µM
TGI (UO-31 renal): 2.13 µM

CCCc1cn2c(/C=N/N=C(N)N)c(-c3cccc([N+](=O)[O-])c3)nc2s1
TGI (ACHN renal): 3.38 µM
TGI (CAKI-1 renal): 3.83 µM
TGI (PC-3 prostate): 8.19 µM
TGI (SN12C renal): 2.58 µM
TGI (HS 578T breast): 7.51 µM
TGI (NCI-H226 lung): 3.28 µM
TGI (MALME-3M melanoma): 2.82 µM
TGI (HL-60(TB) leukemia): 4.75 µM
TGI (NCI/ADR-RES ovarian): 10.5 µM
TGI (NCI-H522 lung): 4.47 µM
TGI (UACC-62 melanoma): 3.15 µM
TGI (SF-539 CNS): 3.15 µM
TGI (KM12 colon): 3.57 µM
TGI (NCI-H460 lung): 5.37 µM
TGI (COLO 205 colon): 4.35 µM
TGI (MDA-MB-231 breast): 3.04 µM
TGI (TK-10 renal): 0.405 µM
TGI (SNB-75 CNS): 3.1 µM
TGI (SK-MEL-28 melanoma): 3.18 µM
TGI (HOP-92 NSCLC): 32.4 µM
TGI (CCRF-CEM leukemia): 2.32 µM
TGI (SK-MEL-5 melanoma): 3.9 µM
TGI (A498 renal): 33.2 µM
TGI (SW-620 colon): 8.42 µM
TGI (T-47D breast): 4.99 µM
TGI (RPMI-8226 leukemia): 4.36 µM
TGI (SK-OV-3 ovarian): 5.3 µM
TGI (MDA-MB-435): 3.46 µM
TGI (SR leukemia): 3.89 µM
TGI (SNB-19 CNS): 4.86 µM
TGI (MOLT-4 leukemia): 2.81 µM
